Results published in US7488841B2, “Composition containing acyl group” (Asahi Kasei Chemicals Corporation, priority 2002, dated 2009).

Assay: Moisture absorption rate under high humidity and moisture retention under low humidity
Type: physicochemical
Details: 25° C.; for Moisture absorption rates under low humidity after different elapsed time (%): after 313 hours at high humidity
Method: The moisture absorption rate under high humidity and the moisture retention rate under low humidity were evaluated for the composition produced in Example 7 and urea as a contrast. Specifically, 1 g of dried sample was dried in a weighing bottle and weighed precisely, and left stand in a desiccator under relative humidity as high as 84% at 25° C. while measuring the sample weight with time until 313 hours has elapsed. Then, the same sample was transferred into a desiccator under relative humidity as low as 33% at 25° C., and left stand in the desiccator while measuring the sample weight with time in the same manner as above considering the point 313 hours has elapsed as a test starting point (0 hr). The moisture absorption rate was obtained in accordance with the following equation. Moisture absorption rate (%)=(Wt−W0/W0)×100 W0: dry weight before being left stand, Wt: weight at the time of each measuring

deliquescent properties (during the course of moisture absorption, relative humidity 84%): showed its deliquescent properties
moisture retention (left stand under low humidity, relative humidity 33%): released almost all its moisture
Moisture absorption rates under low humidity after different elapsed time (%) (relative humidity 33%, 0 Hr): 72.7%
Moisture absorption rates under low humidity after different elapsed time (%) (relative humidity 33%, 25 Hr): 1.2%
Moisture absorption rates under low humidity after different elapsed time (%) (relative humidity 33%, 49 Hr): 0.3%
Moisture absorption rates under low humidity after different elapsed time (%) (relative humidity 33%, 75 Hr): 0.4%
Moisture absorption rates under low humidity after different elapsed time (%) (relative humidity 33%, 141 Hr): 0.3%
Moisture absorption rates under high humidity after different elapsed time (%) (relative humidity 84%, 5 Hr): 0.2%
Moisture absorption rates under high humidity after different elapsed time (%) (relative humidity 84%, 27 Hr): 3.2%
Moisture absorption rates under high humidity after different elapsed time (%) (relative humidity 84%, 48 Hr): 7.4%
Moisture absorption rates under high humidity after different elapsed time (%) (relative humidity 84%, 120 Hr): 24.7%
Moisture absorption rates under high humidity after different elapsed time (%) (relative humidity 84%, 197 Hr): 42.6%
Moisture absorption rates under high humidity after different elapsed time (%) (relative humidity 84%, 313 Hr): 72.7%
Structure (SMILES): NC(N)=O [Urea, urea]
